Measurements published in patent US12187720B2, “Compounds for treatment of cancer” (ONCTERNAL THERAPEUTICS, INC., priority 2010, dated 2025).
Where a name gives a salt, the structure may show the parent alone. Read-outs that look alike come from different tables or passages of the source.

Experiments:
in vitro = conditions: human, microsomes, pH 7.4
[1] = Metabolic stability in monkey liver microsomes; format: in vitro ADME; conditions: monkey, pH 7.4
[2] = Metabolic stability in dog liver microsomes; format: in vitro ADME; conditions: dog, pH 7.4
[3] = Metabolic stability in mouse liver microsomes; format: in vitro ADME; conditions: mouse, liver microsomes
[4] = Metabolic stability in rat liver microsomes; format: in vitro ADME; conditions: rat, liver microsomes, pH 7.4
DU 145 = assay: SRB cytotoxicity assay, DU 145 prostate cancer cells; format: cell-based; conditions: Homo sapiens
Source text: (§1) Cells were stained with SRB solution.

PPC-1 = assay: SRB cytotoxicity assay, PPC-1 prostate cancer cells; format: cell-based, human; conditions: Homo sapiens, PPC-1
Source text: as §1

PC-3/TxR = assay: cells; conditions: Homo sapiens, PC3-TxR, read-out: inhibitory effects PC3/TXR
PC-3 = assay: SRB cytotoxicity assay, PC-3 prostate cancer cells; format: cell-based, human; conditions: Homo sapiens, PC-3
Source text: as §1

LNCaP = assay: SRB cytotoxicity assay, LNCaP prostate cancer cells; format: cell-based, human; conditions: Homo sapiens, LNCaP
Source text: as §1

in vivo = conditions: male, ICR, mouse, plasma, 5 mg/kg; for Vd / clearance: iv
[5] = Metabolic stability in guinea pig liver microsomes; format: in vitro ADME; conditions: pH 7.4, phase I pathway, read-out: T ½ (min), guinea pig liver microsomes
[6] = Metabolic stability in hamster liver microsomes; format: in vitro ADME; conditions: pH 7.4, phase I pathway, read-out: T ½ (min), hamster liver microsomes
[7] = Metabolic stability in rabbit liver microsomes; format: in vitro ADME; conditions: pH 7.4, phase I pathway, read-out: T ½ (min), rabbit liver microsomes
MES-SA/DX5 = assay: SRB growth inhibition assay, P-gp over-expressing MES-SA/DX5 cells; format: cell-based; conditions: ratio of IC50 MES-SA/DX5 to MES-SA
[8] = Metabolic stability in human liver microsomes; conditions: human, liver microsomes, pH 7.4
DU145/TXR = assay: SRB growth inhibition, paclitaxel-resistant DU145/TXR cells; format: cell-based; conditions: Homo sapiens, DU-145; Table 13A; read-out: inhibitory effects DU145/TXR
[9] = test system: A375 human melanoma xenograft; assay: In vivo efficacy, A375 human melanoma xenograft in mice; conditions: 60 mg/kg, 31 days, SHO mice
Experimental: DTIC at 60 mg/kg was used as a positive control again.
PC-3 and A375 tumor xenograft studies.
In vivo antitumor activity [tumor growth inhibition (% T/C), tumor growth delay (T-C value), and tumor cell kill (total log cell kill)].

B16-F1 melanoma tumors = assay: In vivo efficacy, B16-F1 melanoma in C57/BL mice; parameters: species or system mouse; conditions: 60 mg/kg, 13 days, C57BL/6 mice
B16-F1 = assay: SRB cytotoxicity assay, B16-F1 mouse melanoma cells; format: cell-based; conditions: read-out: IC50 ± SEM B16-F1 (converted)
WM-164 = assay: SRB cytotoxicity assay, WM-164 human melanoma cells; format: cell-based; conditions: read-out: IC50 ± SEM WM164 (converted)
A375 = assay: SRB cytotoxicity assay, A375 human melanoma cells; format: cell-based; conditions: Homo sapiens, A-375, 48 h, read-out: IC50 ± SEM A375
WM-164 melanoma cells = assay: Microtubule imaging (immunofluorescence) in WM-164 melanoma cells; format: cell-based, human; conditions: 18 h
Source text: Primary antibody for tubulin and fluorescence-labeled secondary antibody were subsequently added to the cells. Cell nuclei were stained by DAPI. Whole Cell Stain Green was also applied to all cells. All images were acquired with an Olympus IX71 inverted fluorescence microscope (Olympus Corp., Tokyo, Japan) with overlays from separate images of tubulin (red), nuclei (blue), and whole cells (green).

[10] = monkey liver microsomes, Table 20, read-out: Half life in Monkey liver microsome
[11] = dog liver microsomes, Table 20, read-out: Half life in Dog liver microsome
[12] = pH 7.4, Table 20, read-out: Half life in Mouse liver microsome
[13] = Table 20, read-out: Half life in Rat liver microsome
[14] = Table 13A, read-out: inhibitory effects DU145
[15] = Table 13A, read-out: inhibitory effects PPC1
[16] = Table 13A, read-out: inhibitory effects PC3
[17] = Table 13A, read-out: inhibitory effects LNCaP
[18] = liver microsomes, phase I pathway, read-out: T ½ (min), monkey liver microsomes
[19] = liver microsomes, phase I pathway, read-out: T ½ (min), dog liver microsomes
[20] = pH 7.4, phase I pathway, read-out: T ½ (min), mouse liver microsomes
[21] = phase I pathway, read-out: T ½ (min), rat liver microsomes

COc1cc(C(=O)c2csc(-c3ccc(O)cc3)n2)cc(OC)c1OC [2l, (2-(4-Hydroxyphenyl)thiazol-4-yl)(3,4,5-trimethoxyphenyl)methanone]
half-life at 0.5 μM (in vitro): 20 min | half-life at 0.5 μM [1, 10]: 8 min | half-life at 0.5 μM [2, 11]: 30 min | half-life at 0.5 μM [3, 12]: 11 min | half-life at 0.5 μM [4, 13]: 49 min

COc1cc(C(=O)c2cn(C)c(-c3ccc(C)cc3)n2)cc(OC)c1OC [12dab, (1-methyl-2-(p-tolyl)-1H-imidazol-4-yl)(3,4,5-trimethoxyphenyl)methanone]
half-life at 0.5 μM (in vitro): 21 min | half-life at 0.5 μM [2, 11]: 46 min | half-life at 0.5 μM [3, 12]: < 5 min | half-life at 0.5 μM [4, 13]: 12 min

COc1cc(C(=O)c2nc(-c3ccc(Cl)cc3)c[nH]2)cc(OC)c1OC [70c, (4-(4-chlorophenyl)-1H-imidazol-2-yl)(3,4,5-trimethoxyphenyl)methanone]
IC50 (DU 145; [14]): 125 nM | IC50 (PPC-1; [15]): 51 nM | IC50 (PC-3/TxR): 25 nM | IC50 (PC-3; [16]): 64 nM | IC50 (LNCaP; [17]): 22 nM

COc1cc(-c2nccc3ccc(-c4ccc5[nH]ccc5c4)cc23)cc(OC)c1OC [6a]
half-life at 0.5 μM [1, 18]: 16 min | half-life at 0.5 μM [1, 10]: 16 min | half-life at 0.5 μM [2, 11]: 13 min | half-life at 0.5 μM [2, 19]: 13 min | half-life at 0.5 μM [3, 12]: 3.43 min | half-life at 0.5 μM [3, 20]: 3.4 min | AUC (in vivo; ip): 983 ng·h/mL | Cmax (in vivo; ip): 678 ng/mL | bioavailability (in vivo; ip): 60% | Vd (in vivo): 2.3 L/kg | clearance (in vivo): 51 mL/min/kg | AUC (in vivo; po): 83.3 ng·h/mL | Cmax (in vivo; po): 6.7 ng/mL | bioavailability (in vivo; po): 5% | half-life at 0.5 μM [5]: 15 min | half-life at 0.5 μM [6]: 6 min | half-life at 0.5 μM [7]: 17 min | Resistance factor (MES-SA/DX5): 1.5 | half-life at 0.5 μM [8]: 32 min | half-life at 0.5 μM [4, 21]: 12 min

Fc1ccc(-c2nccc3ccc(-c4ccc5[nH]ccc5c4)cc23)cc1 [6c, 1-(4-Fluoro-phenyl)-7-(1H-indol-5-yl)-isoquinoline]
half-life at 0.5 μM [1, 18]: 9 min | half-life at 0.5 μM [1, 10]: 9 min | half-life at 0.5 μM [2, 11]: 29 min | half-life at 0.5 μM [2, 19]: 29 min | half-life at 0.5 μM [3, 12]: 13 min | half-life at 0.5 μM [3, 20]: 13 min | AUC (in vivo; ip): 917 ng·h/mL | Cmax (in vivo; ip): 1100 ng/mL | bioavailability (in vivo; ip): 33% | Vd (in vivo): 1.8 L/kg | clearance (in vivo): 30 mL/min/kg | AUC (in vivo; po): 66.7 ng·h/mL | Cmax (in vivo; po): 50 ng/mL | bioavailability (in vivo; po): 2.7% | half-life at 0.5 μM [5]: 8 min | half-life at 0.5 μM [6]: 20 min | half-life at 0.5 μM [7]: 16 min | half-life at 0.5 μM [8]: 47 min | half-life at 0.5 μM [4, 21]: 14 min

COc1ccc(-c2c[nH]c(C(=O)c3cc(OC)c(OC)c(OC)c3)n2)cc1 [70g, (4-(4-methoxyphenyl)-1H-imidazol-2-yl)(3,4,5-trimethoxyphenyl)methanone]
IC50 (DU 145; [14]): 210 nM | IC50 (DU145/TXR): 111 nM | IC50 (PPC-1; [15]): 54 nM | IC50 (PC-3/TxR): 25 nM | IC50 (PC-3; [16]): 61 nM

CN(C)/N=N/c1[nH]cnc1C(N)=O [DTIC, reference compound]
tumor growth inhibition (TGI value) [9]: 52% | tumor growth inhibition (TGI value) (B16-F1 melanoma tumors): 51%

Cc1ccc(-c2nc(C(=O)c3ccc(F)cc3)c[nH]2)cc1 [12db-HCl, (4-fluorophenyl)(2-(p-tolyl)-1H-imidazol-4-yl)methanone hydrochloride]
IC50 (B16-F1; Table 12, 48 h, hydrochloride): 297 nM | IC50 (WM-164; Table 12, 48 h, hydrochloride): 112 nM

COc1cc(-c2nc(C(=O)c3ccc(F)cc3)c[nH]2)cc(OC)c1OC [12eb, (4-fluorophenyl)(2-(3,4,5-trimethoxyphenyl)-1H-imidazol-4-yl)methanone]
IC50 (A375; Table 12, 48 h): > 10000 nM | IC50 (B16-F1; Mus musculus, B16-F1, 48 h, Table 12, 48 h): > 10000 nM | IC50 (WM-164; Homo sapiens, WM164, 48 h, Table 12, 48 h): > 10000 nM

c1cc2ccc(-c3ccc4[nH]ccc4c3)cc2c(-c2ccc3[nH]ccc3c2)n1 [6b, 1,7-Bis-(1H-indol-5-yl)-isoquinoline]
half-life at 0.5 μM [1, 18]: 13 min | half-life at 0.5 μM [1, 10]: 13 min | half-life at 0.5 μM [2, 11]: 30 min | half-life at 0.5 μM [2, 19]: 30 min | half-life at 0.5 μM [3, 12]: 10 min | half-life at 0.5 μM [3, 20]: 10 min | AUC (in vivo; ip): 3630 ng·h/mL | Cmax (in vivo; ip): 1500 ng/mL | bioavailability (in vivo; ip): 60% | Vd (in vivo): 1.1 L/kg | clearance (in vivo): 14 mL/min/kg | AUC (in vivo; po): 117 ng·h/mL | Cmax (in vivo; po): 50 ng/mL | bioavailability (in vivo; po): 2.1% | half-life at 0.5 μM [5]: 15 min | half-life at 0.5 μM [6]: 11 min | half-life at 0.5 μM [7]: 16 min | Resistance factor (MES-SA/DX5): 1.4 | half-life at 0.5 μM [8]: 40 min | half-life at 0.5 μM [4, 21]: 9 min

COc1ccc(S(=O)(=O)Nc2cccnc2Nc2ccc(O)cc2)cc1 [ABT-751, reference compound]
effect on microtubules (WM-164 melanoma cells): microtubule fragmentation

COc1cc(C(=O)c2nc(-c3ccc(C(F)(F)F)cc3)c[nH]2)cc(OC)c1OC [70e, (4-(4-(trifluoromethyl)phenyl)-1H-imidazol-2-yl)(3,4,5-trimethoxyphenyl)methanone]
IC50 (DU 145; [14]): 210 nM | IC50 (DU145/TXR): 202 nM | IC50 (PPC-1; [15]): 75 nM | IC50 (PC-3/TxR): 46 nM | IC50 (PC-3; [16]): 93 nM | IC50 (LNCaP; [17]): 47 nM

O=C(c1cccc(F)c1)c1cn(S(=O)(=O)c2ccccc2)c(-c2ccccc2)n1 [11ag, (3-fluorophenyl)(2-phenyl-1-(phenylsulfonyl)-1H-imidazol-4-yl)methanone]
IC50 (DU 145; Table 13, 96 h, read-out: IC50 ± SEM Du 145): > 10000 nM | IC50 (A375; Table 13, 48 h): > 10000 nM | IC50 (PPC-1; Table 13, 96 h, read-out: IC50 ± SEM PPC-1): > 10000 nM | IC50 (B16-F1; Mus musculus, B16-F1, 48 h, Table 13, 48 h): > 10000 nM | IC50 (PC-3; Table 13, 96 h, read-out: IC50 ± SEM PC-3): > 10000 nM | IC50 (LNCaP; Table 13, 96 h, read-out: IC50 ± SEM LNCaP): > 10000 nM | IC50 (WM-164; Homo sapiens, WM164, 48 h, Table 13, 48 h): > 10000 nM
